In patent publication US20250320206A1, “STAT6 DEGRADERS” (Gilead Sciences, Inc., priority 2024, published 2025) one finds DC50 and EC50 data, which are given here for 23 compounds.

As a reminder, the DC50 is the concentration at which degradation of the target reaches its halfway point. One may read the EC50 as the concentration that produces a half-maximal response. High values mean lower potency in that assay, low ones higher potency in that assay.

For one experiment, the target named is T1, STAT6 (Homo sapiens, UniProt P42226).
T1 construct: These cells express endogenous STAT6; host or cells: HeLa LgBiT clone 4.14
T1 sequence (P42226 1-847): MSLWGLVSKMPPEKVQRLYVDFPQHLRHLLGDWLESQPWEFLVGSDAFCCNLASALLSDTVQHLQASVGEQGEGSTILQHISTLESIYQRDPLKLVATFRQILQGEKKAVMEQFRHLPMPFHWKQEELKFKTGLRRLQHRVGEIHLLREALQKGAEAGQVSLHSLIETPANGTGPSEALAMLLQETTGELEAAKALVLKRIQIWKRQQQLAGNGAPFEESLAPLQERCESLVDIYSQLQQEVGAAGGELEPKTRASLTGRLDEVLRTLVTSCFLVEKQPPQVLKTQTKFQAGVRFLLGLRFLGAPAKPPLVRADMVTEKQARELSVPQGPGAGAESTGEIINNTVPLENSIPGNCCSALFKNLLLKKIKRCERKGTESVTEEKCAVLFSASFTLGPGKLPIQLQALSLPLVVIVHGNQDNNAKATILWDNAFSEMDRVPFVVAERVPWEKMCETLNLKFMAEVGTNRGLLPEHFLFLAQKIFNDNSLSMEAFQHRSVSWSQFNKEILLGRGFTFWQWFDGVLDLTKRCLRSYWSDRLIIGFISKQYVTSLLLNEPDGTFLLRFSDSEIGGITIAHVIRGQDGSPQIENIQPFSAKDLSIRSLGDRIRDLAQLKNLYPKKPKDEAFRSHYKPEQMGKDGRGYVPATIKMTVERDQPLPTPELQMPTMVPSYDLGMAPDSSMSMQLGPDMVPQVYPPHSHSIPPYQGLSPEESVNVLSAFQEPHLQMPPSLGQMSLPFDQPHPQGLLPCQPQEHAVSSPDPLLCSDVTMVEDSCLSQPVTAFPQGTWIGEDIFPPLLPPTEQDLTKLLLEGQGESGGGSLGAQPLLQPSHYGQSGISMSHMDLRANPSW
Kind of experiment: Stat6 Degrader Assay (HiBiT based, HeLa LgBiT clone 4.14). Format: cell-based. Conditions: HeLa LgBiT clone 4.14 HiBiT-STAT6, 4-24 h incubation; values given for compounds with >80% Emax; geometric mean; read-out: STAT6 degradation DC50. Put shortly: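 Luminescence from HiBiT-STAT6 complementing stably expressed LgBiT in HeLa clone 4.14 reports remaining STAT6 protein. Cells (5000/well) exposed to compound for 4-24 h at 37° C; read 0.5 h after Nano-Glo addition. 100% degradation window set with 50 μM terfenadine; percent degradation plotted against concentration.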
In general terms: HiBiT is a short tag that completes a luciferase, so light tracks the accessible tagged protein.

Experiment [1] concerns Eotaxin-3 release in human whole blood stimulated with IL-4. Kind of experiment: Human Whole Blood Eotaxin-3 Assay (IL-4 stimulated eotaxin-3 release). The experiment is classed as cell-based. Conditions: IL-4 stimulation, 48 h, values given for compounds with >80% Emax, geometric mean. The procedure, abridged: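 Eotaxin-3 (CCL26) release measured by MSD kit in plasma supernatant after 48 h IL-4 stimulation ([…]) of human whole blood. Compounds added in triplicate 4-fold dilutions 2 h before stimulation; 0.5% DMSO final, 37° C, 5% CO2.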

As to `CNc1cc(=O)n(-c2ccnc3c2cc([C@H](C)N2CC=C(c4c(C)cc(C(=O)N5CCC(CN6CCN(Cc7ccc8c(c7)C(C)(C)C(=O)N8[C@@H]7CCC(=O)NC7=O)CC6)CC5)cc4F)CC2)n3C)cc1F` (single isomer, unassigned) [Example 3u89], the 50% degradation concentration (DC50) on STAT6 worked out at 4.1 nM. Besides, in experiment [1], a half-maximal response (EC50) required 43.7 nM.

In the case of `CNc1cc(=O)n(-c2ccnc3c2cc([C@H](C)N2CC=C(c4c(C)cc(C(=O)N5CCC(CN6CCN(Cc7ccc8c(c7)n(C)c(=O)n8[C@H]7CCC(=O)NC7=O)C[C@@H]6C)CC5)cc4F)CC2)n3C)cc1F` (single isomer, unassigned) [Example 3u91], the half-maximal degradation concentration (DC50) on STAT6 stood at 0.6 nM. Also, in experiment [1], the EC50 was 1.4 nM.

On to `CNc1cc(=O)n(-c2ccnc3c2cc([C@H](C)N2CC=C(c4c(C)cc(C(=O)N5CCC(CN6CCN(Cc7ccc8c(c7)n(C)c(=O)n8[C@@H]7CCC(=O)NC7=O)C[C@@H]6C)CC5)cc4F)CC2)n3C)cc1F` (single isomer, unassigned) [Example 3u92], for which, at STAT6, the DC50 worked out at 0.4 nM. In experiment [1], this compound returned an EC50 of 1.8 nM.

As to `CNc1cc(=O)n(-c2ccnc3c2cc(CN2CCC(c4c(F)cc(C(=O)N5CCC(CN6CCN(Cc7cc8c(cc7F)N([C@H]7CCC(=O)NC7=O)C(=O)C87CC7)CC6)CC5)cc4F)CC2)n3C)cc1F` (single isomer, unassigned) [Example 3u94], the DC50 on STAT6 worked out at 10.2 nM. Also, the EC50 in experiment [1] was 23.8 nM.

As to `CNc1cc(=O)n(-c2ccnc3c2cc(CN2CCC(c4c(F)cc(C(=O)N5CCC(CN6CCN(Cc7cc8c(cc7F)N([C@@H]7CCC(=O)NC7=O)C(=O)C87CC7)CC6)CC5)cc4F)CC2)n3C)cc1F` (single isomer, unassigned) [Example 3u95], at STAT6, the DC50 was 18.6 nM. In experiment [1], this compound returned an EC50 of 12.4 nM.

On to `CNc1cc(=O)n(-c2ccnc3c2cc([C@H](C)N2CC=C(c4c(C)cc(C(=O)N5CCC(CN6CCN(Cc7ccc8c(c7)C7(CC7)C(=O)N8[C@H]7CCC(=O)NC7=O)C[C@@H]6C)CC5)cc4F)CC2)n3C)cc1F` (single isomer, unassigned) [Example 3u99], for which, at STAT6, the half-maximal degradation concentration (DC50) worked out at 1.1 nM. This compound also displayed an EC50 in experiment [1] of 1.7 nM.

Regarding `CNc1cc(=O)n(-c2ccnc3c2cc([C@H](C)N2CC=C(c4c(C)cc(C(=O)N5CCC(CN6CCN(Cc7ccc8c(c7)C7(CC7)C(=O)N8[C@@H]7CCC(=O)NC7=O)C[C@@H]6C)CC5)cc4F)CC2)n3C)cc1F` (single isomer, unassigned) [Example 3u100], the DC50 on STAT6 turned out to be 1.7 nM. Also, a half-maximal effect in experiment [1] (EC50) was put at 3.1 nM.

Consider `C[C@H]1CN(Cc2ccc3c(c2)n(C2CC2)c(=O)n3[C@H]2CCC(=O)NC2=O)CCN1CC1CCN(C(=O)c2cc(F)c(C3CCN(Cc4cc5c(-n6ccc7c(c6=O)CCN7)ccnc5n4C)CC3)c(F)c2)CC1` (single isomer, unassigned) [Example 3u107], for which the half-maximal degradation concentration (DC50) at STAT6 is 2.5 nM. Besides, a half-maximal response in experiment [1] (EC50) required 2.8 nM.

For `C[C@H]1CN(Cc2ccc3c(c2)n(C2CC2)c(=O)n3[C@@H]2CCC(=O)NC2=O)CCN1CC1CCN(C(=O)c2cc(F)c(C3CCN(Cc4cc5c(-n6ccc7c(c6=O)CCN7)ccnc5n4C)CC3)c(F)c2)CC1` (single isomer, unassigned) [Example 3u108], the half-maximal degradation concentration (DC50) at STAT6 is 3.4 nM. Moreover, in experiment [1], the EC50 came out at 4.1 nM.

Consider `CNc1cc(=O)n(-c2ccnc3c2cc([C@H](C)N2CC=C(c4c(C)cc(C(=O)N5CCC(CN6CCN(Cc7ccc8c(c7)n(C7CC7)c(=O)n8[C@H]7CCC(=O)NC7=O)C[C@@H]6C)CC5)cc4F)CC2)n3C)cc1F` (single isomer, unassigned) [Example 3u119], for which the DC50 at STAT6 is 2.1 nM. In experiment [1], a half-maximal response (EC50) required 2.2 nM.

Consider `CNc1cc(=O)n(-c2ccnc3c2cc([C@H](C)N2CC=C(c4c(C)cc(C(=O)N5CCC(CN6CCN(Cc7ccc8c(c7)n(C7CC7)c(=O)n8[C@@H]7CCC(=O)NC7=O)C[C@@H]6C)CC5)cc4F)CC2)n3C)cc1F` (single isomer, unassigned) [Example 3u120], for which the 50% degradation concentration (DC50) on STAT6 amounted to 1 nM. Moreover, the 50% effective concentration (EC50) in experiment [1] is 3.7 nM.

As for `CNc1cc(=O)n(-c2ccnc3c2cc([C@H](C)N2CC=C(c4c(F)cc(C(=O)N5CCC(CN6CCN(Cc7ccc8c(c7)n(C7CC7)c(=O)n8[C@@H]7CCC(=O)NC7=O)C[C@@H]6C)CC5)cc4F)CC2)n3C)cc1F` (single isomer, unassigned) [Example 3u130], on STAT6, the DC50 turned out to be 1.3 nM. Besides, the half-maximal effective concentration (EC50) in experiment [1] is 1.8 nM.

As for `CNc1cc(=O)n(-c2ccnc3c2cc([C@H](C)N2CC=C(c4c(C)cc(C(=O)N5CCC(CN6CCN(Cc7cc8c(cc7F)N([C@@H]7CCC(=O)NC7=O)C(=O)C87CC7)CC6)CC5)cc4F)CC2)n3C)cc1F` (single isomer, unassigned) [Example 3u153], at STAT6, the DC50 came to 4.1 nM. This compound had a 50% effective concentration (EC50) in experiment [1] of 8.7 nM.

Turning to `CNc1cc(=O)n(-c2ccnc3c2cc([C@H](C)N2CC=C(c4c(C)cc(C(=O)N5CCC(CN6CCN(Cc7cc8c(cc7F)N([C@H]7CCC(=O)NC7=O)C(=O)C87CC7)CC6)CC5)cc4F)CC2)n3C)cc1F` (single isomer, unassigned) [Example 3u154], at STAT6, the 50% degradation concentration (DC50) came to 6.4 nM. Also, in experiment [1], the EC50 came out at 10.1 nM.

Consider `CNc1ccn(-c2ccnc3c2cc([C@H](C)N2CC=C(c4c(C)cc(C(=O)N5CCC(CN6CCN(Cc7ccc8c(c7)n(C)c(=O)n8[C@@H]7CCC(=O)NC7=O)CC6)CC5)cc4F)CC2)n3C)c(=O)c1` (single isomer, unassigned) [Example 3u157], for which the DC50 at STAT6 came to 0.3 nM. This compound also yielded an EC50 in experiment [1] of 0.4 nM.

Regarding `CNc1ccn(-c2ccnc3c2cc(CN2CCC(c4c(C)cc(C(=O)N5CCC(CN6CCN(Cc7ccc8c(c7)n(C)c(=O)n8[C@@H]7CCC(=O)NC7=O)CC6)CC5)cc4F)CC2)n3C)c(=O)c1` (single isomer, unassigned) [Example 3u159], on STAT6, the DC50 came to 12.8 nM. The compound also displayed a concentration giving a half-maximal response (EC50) in experiment [1] of 52.6 nM.

Turning to `CNc1ccn(-c2ccnc3c2cc(CN2CCC(c4c(C)cc(C(=O)N5CCC(CN6CCN(Cc7ccc8c(c7)n(C)c(=O)n8[C@H]7CCC(=O)NC7=O)CC6)CC5)cc4F)CC2)n3C)c(=O)c1` (single isomer, unassigned) [Example 3u160], the 50% degradation concentration (DC50) on STAT6 turned out to be 10.9 nM. Moreover, in experiment [1], the EC50 turned out to be 27.5 nM.

With `CNc1ccn(-c2ccnc3c2cc(CN2CC=C(c4c(C)cc(C(=O)N5CCC(CN6CCN(Cc7ccc8c(c7)n(C)c(=O)n8[C@H]7CCC(=O)NC7=O)CC6)CC5)cc4F)CC2)n3C)c(=O)c1` (single isomer, unassigned) [Example 3u161], the DC50 on STAT6 amounted to 3.1 nM. In experiment [1], this compound showed a concentration for a half-maximal effect (EC50) of 1.7 nM.

As for `CNc1ccn(-c2ccnc3c2cc(CN2CC=C(c4c(C)cc(C(=O)N5CCC(CN6CCN(Cc7ccc8c(c7)n(C)c(=O)n8[C@@H]7CCC(=O)NC7=O)CC6)CC5)cc4F)CC2)n3C)c(=O)c1` (single isomer, unassigned) [Example 3u162], at STAT6, the DC50 amounted to 3.3 nM. In experiment [1], this compound yielded an EC50 of 2.3 nM.

As for `Cc1cc(C(=O)N2CCC(CN3CCN(Cc4ccc5c(c4)C(C)(C)C(=O)N5[C@@H]4CCC(=O)NC4=O)C[C@@H]3C)CC2)cc(F)c1C1=CCN([C@@H](C)c2cc3c(-n4cc(F)c(N)cc4=O)ccnc3n2C)CC1` (single isomer, unassigned) [Example 3u171], the half-maximal degradation concentration (DC50) at STAT6 is 3.5 nM. Also, the EC50 in experiment [1] is 15.4 nM.

For `CNc1cc(=O)n(-c2ccnc3c2cc([C@H](C)N2CC=C(c4c(C)cc(C(=O)N5CCC(CN6CCN(Cc7ccc8c(c7)C(C)(C)C(=O)N8[C@H]7CCC(=O)NC7=O)C[C@@H]6C)CC5)cc4F)CC2)n3C)cc1F` (single isomer, unassigned) [Example 3u173], on STAT6, the DC50 came out at 3.1 nM. Besides, the EC50 in experiment [1] is 7.8 nM.

For the compound `CNc1cc(=O)n(-c2ccnc3c2cc([C@H](C)N2CC=C(c4c(C)cc(C(=O)N5CCC(CN6CCN(Cc7ccc8c(c7)C(C)(C)C(=O)N8[C@@H]7CCC(=O)NC7=O)C[C@@H]6C)CC5)cc4F)CC2)n3C)cc1F` (single isomer, unassigned) [Example 3u174], on STAT6, the DC50 was determined as 3.8 nM. For the same compound, a half-maximal response in experiment [1] (EC50) required 11 nM.

Consider `CNc1ccn(-c2ccnc3c2cc([C@H](C)N2CC=C(c4c(C)cc(C(=O)N5CCC(CN6CCN(Cc7ccc8c(c7)C(C)(C)C(=O)N8[C@H]7CCC(=O)NC7=O)C[C@@H]6C)CC5)cc4F)CC2)n3C)c(=O)c1` (single isomer, unassigned) [Example 3u176], for which, at STAT6, the half-maximal degradation concentration (DC50) worked out at 2.3 nM. The response in experiment [1] was half-maximal at 9.8 nM (EC50).
